Test system: PBT138 patient tumor-derived glioma cells
Assay: In vitro cytotoxicity assay, IL13Rα2-CAR T cells ± ICG-001
Assay type: cell-based, human
Method: FIG. 2. Combinational strategy of CAR T cell-mediated tumor-antigen targeting with ICG-001 induced differentiation in glioma. […] (B) Cytotoxicity of HER2 CAR-T cells and tumor cells (1:5 ratio) was enhanced by ICG-001 at concentrations 1.25-5 μM. (C) Treatment of PBT138 patient glioma tumors with CAR T IL13Rα2+/−ICG-001.
It has also been observed that ICG-001-induced differentiation of PBT017 and PBT138 (data not shown).

In the case of O=C1[C@H](Cc2ccc(O)cc2)N2C(=O)CCN(C(=O)NCc3ccccc3)[C@H]2CN1Cc1cccc2ccccc12 [ICG-001], the “tumor cell killing, ICG-001 in combination with IL13Rα2-CAR T cells” value is reported as “synergistic killing”.

— US20220354852A1, “TARGETING WNT SIGNALING FOR IMPROVED GLIOMA IMMUNOTHERAPY” (CITY OF HOPE, priority 2021, published 2022)
